{"source": "paper PMC5584945", "about": "“Evaluation of robenidine analog NCL195 as a novel broad-spectrum antibacterial agent” (PLoS ONE, 2017)", "key": {"MDBK": {"test_system": "MDBK", "experiment": "In vitro cytotoxicity, WST-1", "type": "cell-based, bovine", "conditions": "Bos taurus, 24 h exposure, read-out: IC50 values ± SEM", "description": "In order to ensure minimal off target mammalian cell cytotoxicity, we assayed NCL812, NCL195 and NCL219 for in vitro cytotoxicity using a panel of adherent mammalian cell lines: Caco-2 (human colorectal adenocarcinoma cell line), HEL 299 (non-cancerous human lung fibroblast cell line), Hep G2 (human hepatocellular carcinoma cell line), MDBK (normal bovine kidney cell line) and MCF7 (human mammary gland adenocarcinoma cell line). Cell lines were maintained in Dulbecco’s Modified Eagle’s Medium (DMEM; […] After 24 h incubation, media was removed, washed once with medium without antibiotics and fresh medium supplemented with 10% (vol/vol) FBS was added. […] Following exposure for 24 h, WST-1 reagent was added to each well at a final concentration of 10%. […] The IC50 value for each compound against each cell line was determined via non-linear regression (three parameters) using GraphPad Prism v6 software. The robustness of assays was confirmed with selected cell lines (Hep G2 and MDBK) seeded onto a 96–well Microwell Nunclon Delta Surface plate (Thermo Scientific Nunc; Cat No: 136101) at 5 × 10^4 cells per well."}, "S. pneumoniae D39 [1]": {"test_system": "S. pneumoniae D39", "experiment": "Minimum bactericidal concentration (MBC)", "type": "cell-based", "conditions": "Streptococcus pneumoniae"}, "S. pneumoniae D39 [2]": {"test_system": "S. pneumoniae D39", "experiment": "Membrane potential, DiOC2(3) fluorescence", "type": "cell-based, Streptococcus pneumoniae", "conditions": "16 μg/ml, pre-incubated 5 min; versus untreated and ampicillin", "method": "(§1) To further examine the mechanism underlying the perturbation of the cell membrane of S. pneumoniae or S. aureus by the NCL compounds, the membrane potential of the cells was measured by fluorescence spectrometry using (DiOC2(3), essentially as described previously. Briefly, […] cells from an overnight HBA plate were grown in Todd-Hewitt broth supplemented with 1% yeast extract (THY) at 37°C, 5% CO2 until A600 nm = 0.5. […] The cuvette was then placed in a LS 55 Fluorescence Spectrometer (PerkinElmer) set at Ex. 488 nm/Em. 620 nm, with excitation and emission slit widths at 5 nm and 7 nm, respectively). […] All assays were performed at least twice."}, "S. aureus ATCC49775": {"test_system": "S. aureus ATCC49775", "experiment": "Membrane potential, DiOC2(3) fluorescence", "type": "cell-based, Staphylococcus aureus", "conditions": "16 μg/ml, pre-incubated 5 min; versus untreated and ampicillin", "method": "as §1"}, "[3]": {"experiment": "LogD by gradient HPLC chromatographic method", "type": "physicochemical", "conditions": "pH 7.4"}, "[4]": {"experiment": "Kinetic solubility by nephelometry", "type": "physicochemical", "conditions": "kinetic from dmso stock"}, "S. aureus Xen29": {"test_system": "S. aureus Xen29", "experiment": "Minimum bactericidal concentration (MBC)", "type": "cell-based", "conditions": "Staphylococcus aureus, 99.9% colony count reduction", "method": "The tray was covered with Breathe-Easy sealing membrane (Z380059, Sigma-Aldrich) and incubated for 16 h overnight at 35°C in an EnSpire Multimode Plate Reader 2300 (PerkinElmer), with data collected every 20 min and 2 sec agitation at 60 rpm between data (A600 nm) acquisitions. The experiment was repeated using the luminescent D39LUX strain on a Cytation 5 Cell Imaging Multi-Mode Reader (BioTek) using IsoplateTM-96 F tray PerkinElmer, 6005020). Kill kinetic assays on S. aureus Xen29 was carried out essentially as described for MIC determination on Cytation 5 Cell Imaging Multi-Mode Reader.\nIn order to determine the MBC of each compound against S. pneumoniae D39 or S. aureus Xen29, 10 μl aliquots from each duplicate well from the MIC assays (starting from the MIC for each compound) was inoculated onto a HBA plate and incubated at 37°C (+ 5% CO2 for S. pneumoniae D39). Plates were examined at 24 and 48 h and the MBC was recorded as the lowest concentration of each test compound at which a 99.9% colony count reduction was observed on the plate."}, "[5]": {"test_system": "vancomycin-resistant enterococci (VRE)", "experiment": "MIC, broth micro-dilution (CLSI)", "type": "cell-based, enterococci (porcine isolates)", "conditions": "for MIC50 / MIC90 / MIC: Enterococcus, VRE"}, "Hep G2": {"test_system": "Hep G2", "experiment": "Real-time cell viability, RealTime-Glo MT", "type": "cell-based, human", "conditions": "2 or 8 μg/ml, up to 20 h post-treatment"}, "[6]": {"conditions": "S3 Table isolates, absence of FBS"}}}
{"smiles": "Cl.N=C(NN=Cc1ccc(Cl)cc1)NN=Cc1ccc(Cl)cc1", "note": "[NCL812, 2,2'-bis[(4-chlorophenyl)methylene] carbonimidic dihydrazide hydrochloride]", "values": [{"measurement": "IC50", "setting": "MDBK", "result": "5.9 ± 0.1", "unit": "µg/mL"}, {"measurement": "MBC", "setting": "S. pneumoniae D39 [1]", "result": 8, "unit": "µg/mL"}, {"measurement": "Effect on generated membrane potential", "setting": "S. pneumoniae D39 [2]", "result": "large reduction in the magnitude of the generated membrane potential"}, {"measurement": "Effect on generated membrane potential", "setting": "S. aureus ATCC49775", "result": "large reduction in the magnitude of the generated membrane potential"}, {"measurement": "chromatographic logD", "setting": "[3]", "result": 4.5}, {"measurement": "solubility", "setting": "[4]; pH 2.0", "result": "6.3 to 12.5", "unit": "µg/mL"}, {"measurement": "solubility", "setting": "[4]; pH 6.5", "result": "< 1.6", "unit": "µg/mL"}, {"measurement": "MBC", "setting": "S. aureus Xen29", "result": 4, "unit": "µg/mL"}, {"measurement": "Fold increase of MIC range in the presence of 10% FBS", "setting": "[5]; 10% FBS versus no FBS", "result": "8-16 fold"}, {"measurement": "MIC range", "setting": "[5]; 20 isolates", "result": "2 to 4", "unit": "µg/mL"}, {"measurement": "MIC50", "setting": "[5]; S3 Table isolates, 10% FBS", "result": 32, "unit": "µg/mL"}, {"measurement": "MIC90", "setting": "[5]; S3 Table isolates, 10% FBS", "result": 32, "unit": "µg/mL"}, {"measurement": "MIC50", "setting": "[5]; [6]", "result": 2, "unit": "µg/mL"}, {"measurement": "MIC90", "setting": "[5]; [6]", "result": 2, "unit": "µg/mL"}, {"measurement": "MIC", "setting": "[5]; VRE 1 (49 FR), 10% FBS", "result": 32, "unit": "µg/mL"}, {"measurement": "MIC", "setting": "[5]; VRE 1 (49 FR), absence of FBS", "result": 2, "unit": "µg/mL"}, {"measurement": "MIC", "setting": "[5]; VRE 2 (53 FR), 10% FBS", "result": 32, "unit": "µg/mL"}, {"measurement": "MIC", "setting": "[5]; VRE 2 (53 FR), absence of FBS", "result": 2, "unit": "µg/mL"}, {"measurement": "MIC", "setting": "[5]; VRE 3 (55 FR), 10% FBS", "result": 32, "unit": "µg/mL"}, {"measurement": "MIC", "setting": "[5]; VRE 3 (55 FR), absence of FBS", "result": 2, "unit": "µg/mL"}, {"measurement": "MIC", "setting": "[5]; VRE 4 (57 FR), 10% FBS", "result": 32, "unit": "µg/mL"}, {"measurement": "MIC", "setting": "[5]; VRE 4 (57 FR), absence of FBS", "result": 2, "unit": "µg/mL"}, {"measurement": "MIC", "setting": "[5]; VRE5 (58 FR), 10% FBS", "result": 32, "unit": "µg/mL"}, {"measurement": "MIC", "setting": "[5]; VRE5 (58 FR), absence of FBS", "result": 4, "unit": "µg/mL"}, {"measurement": "MIC", "setting": "[5]; VRE 6 (59 FR), 10% FBS", "result": 32, "unit": "µg/mL"}, {"measurement": "MIC", "setting": "[5]; VRE 6 (59 FR), absence of FBS", "result": 2, "unit": "µg/mL"}, {"measurement": "MIC", "setting": "[5]; VRE 7 (270 G), 10% FBS", "result": 32, "unit": "µg/mL"}, {"measurement": "MIC", "setting": "[5]; VRE 7 (270 G), absence of FBS", "result": 4, "unit": "µg/mL"}, {"measurement": "MIC", "setting": "[5]; VRE 8 (277 G), 10% FBS", "result": 32, "unit": "µg/mL"}, {"measurement": "MIC", "setting": "[5]; VRE 8 (277 G), absence of FBS", "result": 2, "unit": "µg/mL"}, {"measurement": "MIC", "setting": "[5]; VRE 9 (61 FR), 10% FBS", "result": 32, "unit": "µg/mL"}, {"measurement": "MIC", "setting": "[5]; VRE 9 (61 FR), absence of FBS", "result": 2, "unit": "µg/mL"}, {"measurement": "MIC", "setting": "[5]; VRE 10 (62 FR), 10% FBS", "result": 32, "unit": "µg/mL"}, {"measurement": "MIC", "setting": "[5]; VRE 10 (62 FR), absence of FBS", "result": 2, "unit": "µg/mL"}, {"measurement": "MIC", "setting": "[5]; VRE 11 (284 G), 10% FBS", "result": 32, "unit": "µg/mL"}, {"measurement": "MIC", "setting": "[5]; VRE 11 (284 G), absence of FBS", "result": 2, "unit": "µg/mL"}, {"measurement": "MIC", "setting": "[5]; VRE 12 (290 G), 10% FBS", "result": 32, "unit": "µg/mL"}, {"measurement": "MIC", "setting": "[5]; VRE 12 (290 G), absence of FBS", "result": 2, "unit": "µg/mL"}, {"measurement": "MIC", "setting": "[5]; VRE 13 (251 G), 10% FBS", "result": 32, "unit": "µg/mL"}, {"measurement": "MIC", "setting": "[5]; VRE 13 (251 G), absence of FBS", "result": 2, "unit": "µg/mL"}, {"measurement": "MIC", "setting": "[5]; VRE 14 (252 G), 10% FBS", "result": 32, "unit": "µg/mL"}, {"measurement": "MIC", "setting": "[5]; VRE 14 (252 G), absence of FBS", "result": 2, "unit": "µg/mL"}, {"measurement": "MIC", "setting": "[5]; VRE 15 (63 FR), 10% FBS", "result": 32, "unit": "µg/mL"}, {"measurement": "MIC", "setting": "[5]; VRE 15 (63 FR), absence of FBS", "result": 2, "unit": "µg/mL"}, {"measurement": "MIC", "setting": "[5]; VRE 16 (60 FR), 10% FBS", "result": 32, "unit": "µg/mL"}, {"measurement": "MIC", "setting": "[5]; VRE 16 (60 FR), absence of FBS", "result": 4, "unit": "µg/mL"}, {"measurement": "MIC", "setting": "[5]; VRE 17 (45 FR), 10% FBS", "result": 32, "unit": "µg/mL"}, {"measurement": "MIC", "setting": "[5]; VRE 17 (45 FR), absence of FBS", "result": 2, "unit": "µg/mL"}, {"measurement": "MIC", "setting": "[5]; VRE 18 (69 W), 10% FBS", "result": 32, "unit": "µg/mL"}, {"measurement": "MIC", "setting": "[5]; VRE 18 (69 W), absence of FBS", "result": 2, "unit": "µg/mL"}, {"measurement": "MIC", "setting": "[5]; VRE 19 (70 W), 10% FBS", "result": 32, "unit": "µg/mL"}, {"measurement": "MIC", "setting": "[5]; VRE 19 (70 W), absence of FBS", "result": 2, "unit": "µg/mL"}, {"measurement": "MIC", "setting": "[5]; VRE 20 (78 W), 10% FBS", "result": 32, "unit": "µg/mL"}, {"measurement": "MIC", "setting": "[5]; VRE 20 (78 W), absence of FBS", "result": 2, "unit": "µg/mL"}, {"measurement": "MIC range", "setting": "[5]; S3 Table isolates, 10% FBS", "result": 32, "unit": "µg/mL"}, {"measurement": "MIC range", "setting": "[5]; [6]", "result": "2 to 4", "unit": "µg/mL"}, {"measurement": "Effect on cell viability (real-time)", "setting": "Hep G2", "result": "affected viability at 8 μg/ml"}]}
